For orientation: Kd means the free concentration of one partner at which half of the binding sites on the other are occupied at equilibrium, for simple one-to-one binding. A lower Kd goes with higher affinity.

Kd data for 1 compound are collected here from article PMC12415608 (Molecular biology of the cell, 2025).

The target of this assay is PaFimX (Pseudomonas aeruginosa, UniProt Q9HUK6). Briefly: isothermal titration calorimetry. The assay is classed as binding. In general terms: Isothermal titration calorimetry measures the heat released or taken up as one component is titrated into another.

For `Nc1nc2c(ncn2[C@@H]2O[C@@H]3CO[P@](=O)(O)O[C@H]4[C@@H](O)[C@H](n5cnc6c(=O)[nH]c(N)nc65)O[C@@H]4CO[P@](=O)(O)O[C@H]3[C@H]2O)c(=O)[nH]1` [cdG], the Kd was found to be 144 nM.
